Assay results as given in the supplement of paper PMC8967900.

test system: COG-LL-317; test: selective drug sensitivity score (sDSS, relative to normal bone marrow) (sDSS (score)); higher = more potent and effective on the cell line relative to normal bone marrow cells; settings: 72 h
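Further: ALL cell lines in 384-well plates, five doses spanning 10,000-fold, each plate scaled between vehicle and 100 µmol/L benzalkonium chloride controls, sDSS an adapted area-under-curve metric.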

Row | SMILES | selective drug sensitivity score
1 | CC(=O)[C@]1(O)Cc2c(O)c3c(c(O)c2[C@@H](O[C@H]2C[C@H](N)[C@H](O)[C@H](C)O2)C1)C(=O)c1ccccc1C3=O [Idarubicin] (top concentration 1000 nM) | 13.2
2 | COc1cc2nccc(Oc3ccc(NC(=O)NC4CC4)c(Cl)c3)c2cc1C(N)=O [Lenvatinib] (top concentration 2500 nM) | -0.24
3 | N#Cc1ccc(C(c2ccc(C#N)cc2)n2cncn2)cc1 [Letrozole] (top concentration 10000 nM) | -0.04
4 | CCNCCS(=O)(=O)NC[C@@]1(c2ccccc2)SC(NC(=O)C(C)(C)C)=NN1C(=O)C(C)(C)C [Litronesib] (top concentration 1000 nM) | 19.5
5 | CC[C@H](C)C(=O)O[C@H]1C[C@@H](C)C=C2C=C[C@H](C)[C@H](CC[C@@H]3C[C@@H](O)CC(=O)O3)[C@H]21 [Lovastatin] (top concentration 10000 nM) | 3.6
6 | Cn1cc(-c2cnn3c(N)c(Br)c([C@@H]4CCCNC4)nc23)cn1 [MK-8776] (top concentration 2500 nM) | 6.14
7 | Cc1cnc(-c2ccccc2C(C)C)nc1NCc1ccc(-n2ccnn2)cc1 [ML323] (top concentration 10000 nM) | 1.04
8 | O=C(CCNC(=O)c1ccc(OC(F)(F)F)cc1)N[C@@H]1CCCc2ccccc21 [ML390] (top concentration 50000 nM) | 16.8
9 | CN(C)C(=N)NC(=N)N [Metformin] (top concentration 100000 nM) | -0.02
10 | C[C@H]1C[C@@H]2[C@H]([C@@H](O)C[C@@]3(C)[C@H]2CC[C@]3(O)C(=O)CO)[C@@]2(C)C=CC(=O)C=C12 [Methylprednisolone] (top concentration 10000 nM) | 5.4
11 | FC(F)(F)c1ccc(/C=C/c2nc(COc3ccc(CCCCn4ccnn4)cc3)co2)cc1 [Mubritinib] (top concentration 1000 nM) | 2.26
12 | COc1cc2c(cc1OC(C)C)[C@H](c1ccc(Cl)cc1)N(c1ccc(N(C)C[C@H]3CC[C@H](N4CCN(C)C(=O)C4)CC3)cc1)C(=O)C2 [NVP-CGM097] (top concentration 25000 nM) | 17.2
13 | CCOc1cc2ncc(C#N)c(Nc3ccc(OCc4ccccn4)c(Cl)c3)c2cc1NC(=O)/C=C/CN(C)C [Neratinib] (top concentration 1000 nM) | 1.18
14 | COc1ncc(-c2ccc3nccc(-c4ccnnc4)c3c2)cc1NS(=O)(=O)c1ccc(F)cc1F [Omipalisib] (top concentration 1000 nM) | 4
15 | CN1CCN(c2cc(C(=O)Nc3ccc4c(c3)-c3c(c(C(N)=O)nn3-c3ccc(F)cc3)CC4)c(Cl)cn2)CC1 [PHA-408] (top concentration 10000 nM) | -1.22
16 | OC[C@H]1O[C@@H](n2cnc3c2N=CNC[C@H]3O)C[C@@H]1O [Pentostatin] (top concentration 10000 nM) | -0.44
17 | CC(C)N(C[C@H]1O[C@@H](n2cnc3c(N)ncnc32)[C@H](O)[C@@H]1O)[C@H]1C[C@@H](CCc2nc3cc(C(C)(C)C)ccc3[nH]2)C1 [Pinometostat] (top concentration 1000 nM) | 0
18 | Cc1ccc(=O)n(-c2ccccc2)c1 [Pirfenidone] (top concentration 10000 nM) | 0

test system: TMD5; test: as above; settings: 72 h

Row | SMILES | selective drug sensitivity score
19 | CC(=O)[C@]1(O)Cc2c(O)c3c(c(O)c2[C@@H](O[C@H]2C[C@H](N)[C@H](O)[C@H](C)O2)C1)C(=O)c1ccccc1C3=O [Idarubicin] (top concentration 1000 nM) | 1.94
20 | COc1cc2nccc(Oc3ccc(NC(=O)NC4CC4)c(Cl)c3)c2cc1C(N)=O [Lenvatinib] (top concentration 2500 nM) | 0.66
21 | N#Cc1ccc(C(c2ccc(C#N)cc2)n2cncn2)cc1 [Letrozole] (top concentration 10000 nM) | -0.04
22 | CCNCCS(=O)(=O)NC[C@@]1(c2ccccc2)SC(NC(=O)C(C)(C)C)=NN1C(=O)C(C)(C)C [Litronesib] (top concentration 1000 nM) | 9.64
23 | CC[C@H](C)C(=O)O[C@H]1C[C@@H](C)C=C2C=C[C@H](C)[C@H](CC[C@@H]3C[C@@H](O)CC(=O)O3)[C@H]21 [Lovastatin] (top concentration 10000 nM) | -0.1
24 | Cn1cc(-c2cnn3c(N)c(Br)c([C@@H]4CCCNC4)nc23)cn1 [MK-8776] (top concentration 2500 nM) | -1.46
25 | Cc1cnc(-c2ccccc2C(C)C)nc1NCc1ccc(-n2ccnn2)cc1 [ML323] (top concentration 10000 nM) | -0.26
26 | O=C(CCNC(=O)c1ccc(OC(F)(F)F)cc1)N[C@@H]1CCCc2ccccc21 [ML390] (top concentration 50000 nM) | -1.2
27 | CN(C)C(=N)NC(=N)N [Metformin] (top concentration 100000 nM) | -0.02
28 | C[C@H]1C[C@@H]2[C@H]([C@@H](O)C[C@@]3(C)[C@H]2CC[C@]3(O)C(=O)CO)[C@@]2(C)C=CC(=O)C=C12 [Methylprednisolone] (top concentration 10000 nM) | 15
29 | FC(F)(F)c1ccc(/C=C/c2nc(COc3ccc(CCCCn4ccnn4)cc3)co2)cc1 [Mubritinib] (top concentration 1000 nM) | 0.26
30 | COc1cc2c(cc1OC(C)C)[C@H](c1ccc(Cl)cc1)N(c1ccc(N(C)C[C@H]3CC[C@H](N4CCN(C)C(=O)C4)CC3)cc1)C(=O)C2 [NVP-CGM097] (top concentration 25000 nM) | 7.86
31 | CCOc1cc2ncc(C#N)c(Nc3ccc(OCc4ccccn4)c(Cl)c3)c2cc1NC(=O)/C=C/CN(C)C [Neratinib] (top concentration 1000 nM) | -0.52
32 | COc1ncc(-c2ccc3nccc(-c4ccnnc4)c3c2)cc1NS(=O)(=O)c1ccc(F)cc1F [Omipalisib] (top concentration 1000 nM) | -2.2
33 | CN1CCN(c2cc(C(=O)Nc3ccc4c(c3)-c3c(c(C(N)=O)nn3-c3ccc(F)cc3)CC4)c(Cl)cn2)CC1 [PHA-408] (top concentration 10000 nM) | -1.22
34 | OC[C@H]1O[C@@H](n2cnc3c2N=CNC[C@H]3O)C[C@@H]1O [Pentostatin] (top concentration 10000 nM) | -0.24
35 | CC(C)N(C[C@H]1O[C@@H](n2cnc3c(N)ncnc32)[C@H](O)[C@@H]1O)[C@H]1C[C@@H](CCc2nc3cc(C(C)(C)C)ccc3[nH]2)C1 [Pinometostat] (top concentration 1000 nM) | 0
36 | Cc1ccc(=O)n(-c2ccccc2)c1 [Pirfenidone] (top concentration 10000 nM) | 0

test system: MOLT-4; test: as above; settings: 72 h

Row | SMILES | selective drug sensitivity score
37 | CC(=O)[C@]1(O)Cc2c(O)c3c(c(O)c2[C@@H](O[C@H]2C[C@H](N)[C@H](O)[C@H](C)O2)C1)C(=O)c1ccccc1C3=O [Idarubicin] (top concentration 1000 nM) | 7.74
38 | COc1cc2nccc(Oc3ccc(NC(=O)NC4CC4)c(Cl)c3)c2cc1C(N)=O [Lenvatinib] (top concentration 2500 nM) | 0.36
39 | N#Cc1ccc(C(c2ccc(C#N)cc2)n2cncn2)cc1 [Letrozole] (top concentration 10000 nM) | -0.04
40 | CCNCCS(=O)(=O)NC[C@@]1(c2ccccc2)SC(NC(=O)C(C)(C)C)=NN1C(=O)C(C)(C)C [Litronesib] (top concentration 1000 nM) | 13.8
41 | CC[C@H](C)C(=O)O[C@H]1C[C@@H](C)C=C2C=C[C@H](C)[C@H](CC[C@@H]3C[C@@H](O)CC(=O)O3)[C@H]21 [Lovastatin] (top concentration 10000 nM) | -0.1
42 | Cn1cc(-c2cnn3c(N)c(Br)c([C@@H]4CCCNC4)nc23)cn1 [MK-8776] (top concentration 2500 nM) | -1.46
43 | Cc1cnc(-c2ccccc2C(C)C)nc1NCc1ccc(-n2ccnn2)cc1 [ML323] (top concentration 10000 nM) | 1.34
44 | O=C(CCNC(=O)c1ccc(OC(F)(F)F)cc1)N[C@@H]1CCCc2ccccc21 [ML390] (top concentration 50000 nM) | 15.2
45 | CN(C)C(=N)NC(=N)N [Metformin] (top concentration 100000 nM) | -0.02
